Patent publication US8329919B2, “Salt hydrates” (Novartis AG, priority 2002, dated 2012)

Test: Thermogravimetry: weight loss, i.e. water loss, as a function of temperature (thermobalance TGS-2)
Assay type: physicochemical
Details: heating rate 10 K·min^−1, water-free N2 atmosphere
Method: Using thermogravimetry, in a water-free N2 atmosphere, the weight loss, i.e. the water loss for the tetrahydrate of the calcium salt of valsartan A1,Ca as a function of temperature, was measured at a heating rate of 10 K·min^−1. […]
Using thermogravimetry, in a water-free N2 atmosphere, the weight loss, i.e. the water loss for the trihydrate of the calcium salt of valsartan in the polymorphic form B1,Ca as a function of temperature, was measured at a heating rate of 10 K·min^−1.
(§1) Using thermogravimetry, in a water-free N2 atmosphere, the weight loss, i.e. the water loss for the trihydrate B2,Ca as a function of temperature, was measured at a heating rate of 10 K·min^−1. The results for the polymorph B2,Ca of the trihydrate of the calcium salt of valsartan are illustrated in table 4.
as §1, with “B3,Ca” for “B2,Ca”, “polymorphic form B3,Ca” for “polymorph B2,Ca”, “5.” for “4.”
Using thermogravimetry, in a water-free N2 atmosphere, the weight loss, i.e. the water loss for the di-(calcium salt of valsartan) pentahydrate D1,Ca as a function of temperature, was measured at a heating rate of 10 K·min^−1.
The instrument used for the calorimetric data is throughout a DSC Pyris 1 (Differential Scanning calorimeter) obtained from Perkin-Elmer Corp., Norwalk, Conn. USA. The measurements are performed with samples enclosed in a sealed gold specimen container with an internal free volume of ca. 22 microliters, with a sample weight of 2 to 4 mg and with a heating rate of Tr=10K·min^−1. […] The instrument used was a TGS-2 (Perkin-Elmer Corp., Norwalk, Conn. USA) and the measurement was performed in a water free atmosphere. The heating rate selected was 10 K·min^−1. The weight loss is illustrated in table 7.
The heating rate selected was 10K·min^−1.
Using thermogravimetry, in a water-free N2 atmosphere, the weight loss, i.e. the water loss for the tetrahydrate as a function of temperature, was measured at a heating rate of 10 K·min^−1. The results for the calcium salt of valsartan tetrahydrate A0,Ca are listed in the following: […]
Using thermogravimetry, in a water-free N2 atmosphere, the weight loss, i.e. the water loss for the tetrahydrate of the calcium salt of valsartan as a function of temperature, was measured at a heating rate of 10 K·min^−1.

weight loss or water loss in % (temperature 25 °C) [%]	weight loss or water loss in % (temperature 50 °C) [%]	weight loss or water loss in % (temperature 75 °C) [%]	weight loss or water loss in % (temperature 100 °C) [%]	weight loss or water loss in % (temperature 125 °C) [%]	weight loss or water loss in % (temperature 150 °C) [%]	weight loss or water loss in % (temperature 175 °C) [%]	weight loss or water loss in % (temperature 200 °C) [%]	weight loss or water loss in % (temperature 225 °C) [%]	weight loss or water loss in % (temperature 250 °C) [%]	weight loss or water loss in % (temperature 275 °C) [%]	SMILES
0.0	1.2	4.2	11.0	16.7	17.7	18.3	18.5	18.7	18.9	19.3	CCCCC(=O)N(Cc1ccc(-c2ccccc2-c2nnn[nH]2)cc1)[C@H](C(=O)O)C(C)C [A0,Mg, (S)—N-(1-carboxy-2-methyl-prop-1-yl)-N-pentanoyl-N-[2′-(1H-tetrazol-5-yl)-biphenyl-4-ylmethyl]-amine]
0 ± 0.1	2.1 ± 0.3	6.5 ± 0.5	9.5 ± 0.5	11.1 ± 0.5	12.0 ± 0.5	12.5 ± 0.5	12.8 ± 0.5	13.0 ± 0.5	13.6 ± 0.5	14.3 ± 0.5	CCCCC(=O)N(Cc1ccc(-c2ccccc2-c2nnn[nH]2)cc1)[C@H](C(=O)O)C(C)C [B1,Mg, (S)—N-(1-carboxy-2-methyl-prop-1-yl)-N-pentanoyl-N-[2′-(1H-tetrazol-5-yl)-biphenyl-4-ylmethyl]-amine]
